Results reported in publication PMC13064811, “The Role of Disulfide Bonds in the GluN1 Subunit in the Early Trafficking and Functional Properties of GluN1/GluN2 and GluN1/GluN3 NMDA Receptors” (The Journal of Neuroscience, 2026).

Experiments:
[1] = system: GluN1-C79S-C308S/GluN2A receptors; settings: cited from earlier work
hGluN1-4a/hGluN2A = molecular target: T1, hGluN1-4a/hGluN2A (Homo sapiens, UniProt Q05586+Q12879); assay type: cell-based; settings: pretreatment with 4 mM DTT or 0.5 mM DTNB, each for 2 min
T1 construct: GluN1-4a (hGluN1-4a; NP_000823.4); GluN2A (hGluN2A; NP_001127879.1); expressed in transfected cells; host or cells: HEK293T
T1 sequence (Q12879 23-1464, other chains not shown): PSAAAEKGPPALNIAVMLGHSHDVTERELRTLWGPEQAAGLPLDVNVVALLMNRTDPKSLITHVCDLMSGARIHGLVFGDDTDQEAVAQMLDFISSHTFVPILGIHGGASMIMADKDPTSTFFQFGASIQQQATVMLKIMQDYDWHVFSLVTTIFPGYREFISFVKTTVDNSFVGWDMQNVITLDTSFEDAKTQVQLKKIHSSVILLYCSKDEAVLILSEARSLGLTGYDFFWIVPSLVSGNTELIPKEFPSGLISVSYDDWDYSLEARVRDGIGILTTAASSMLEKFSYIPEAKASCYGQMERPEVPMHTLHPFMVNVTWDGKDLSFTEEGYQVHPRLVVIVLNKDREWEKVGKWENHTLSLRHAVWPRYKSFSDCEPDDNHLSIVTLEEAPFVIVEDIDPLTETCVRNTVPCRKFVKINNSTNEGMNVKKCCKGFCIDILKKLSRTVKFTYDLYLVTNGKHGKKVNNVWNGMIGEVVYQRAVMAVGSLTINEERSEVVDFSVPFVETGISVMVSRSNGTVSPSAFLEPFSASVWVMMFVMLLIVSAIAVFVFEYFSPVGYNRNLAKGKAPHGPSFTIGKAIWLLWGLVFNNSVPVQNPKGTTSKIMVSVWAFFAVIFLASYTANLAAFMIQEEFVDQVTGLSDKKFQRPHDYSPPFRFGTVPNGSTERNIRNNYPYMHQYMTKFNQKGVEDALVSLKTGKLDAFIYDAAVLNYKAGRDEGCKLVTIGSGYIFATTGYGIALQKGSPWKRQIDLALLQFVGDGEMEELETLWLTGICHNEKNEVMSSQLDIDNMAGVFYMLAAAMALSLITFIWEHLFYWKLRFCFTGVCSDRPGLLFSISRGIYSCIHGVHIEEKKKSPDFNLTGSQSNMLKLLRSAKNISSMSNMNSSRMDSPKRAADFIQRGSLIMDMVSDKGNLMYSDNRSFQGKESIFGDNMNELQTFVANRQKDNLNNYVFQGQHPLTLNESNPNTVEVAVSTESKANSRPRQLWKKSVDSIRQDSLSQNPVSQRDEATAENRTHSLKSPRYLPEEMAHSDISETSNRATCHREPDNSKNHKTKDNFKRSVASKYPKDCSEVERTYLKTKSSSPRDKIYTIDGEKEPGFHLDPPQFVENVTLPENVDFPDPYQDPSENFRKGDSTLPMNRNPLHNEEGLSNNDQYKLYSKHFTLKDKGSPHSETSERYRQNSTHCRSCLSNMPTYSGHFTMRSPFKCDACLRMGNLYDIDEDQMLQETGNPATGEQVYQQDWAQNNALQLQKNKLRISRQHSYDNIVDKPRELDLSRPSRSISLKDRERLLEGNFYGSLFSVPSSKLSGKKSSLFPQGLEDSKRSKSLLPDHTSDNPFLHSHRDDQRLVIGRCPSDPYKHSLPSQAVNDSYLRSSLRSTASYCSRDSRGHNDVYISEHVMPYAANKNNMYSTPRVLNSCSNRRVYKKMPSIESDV

hGluN1-4a-C744Y/hGluN2A = molecular target: T2, hGluN1-4a-C744Y/hGluN2A (Homo sapiens, UniProt Q05586+Q12879, C744Y); assay type: cell-based; settings: pretreatment with 4 mM DTT or 0.5 mM DTNB, each for 2 min
T2 construct: GluN1-4a (hGluN1-4a; NP_000823.4); GluN2A (hGluN2A; NP_001127879.1); expressed in transfected cells; host or cells: HEK293T

[2] = system: YFP-hGluN1/hGluN2A receptors; assay type: cell-based, rat
[3] = system: YFP-hGluN1/hGluN2B receptors; assay type: cell-based, rat
GluN1-C454S/GluN2B = settings: read-out: EC50 L-glutamate; cited from earlier work
GluN1-C455S/GluN2B = settings: read-out: EC50 L-glutamate; cited from earlier work
GluN1-C436S/GluN2B = settings: read-out: EC50 L-glutamate; cited from earlier work
[4] = molecular target: YFP-hGluN1-1a-C744Y/hGluN2B (Homo sapiens, UniProt Q05586+Q13224, C744Y); assay type: cell-based; settings: YFP-hGluN1-1a-C744Y/hGluN2B; −60 mV
[5] = molecular target: GluN1-C744Y/GluN2A receptors; settings: read-out: EC50 value for L-glutamate; cited from earlier work
[6] = molecular target: YFP-hGluN1-1a-C744Y/hGluN2A (Homo sapiens, UniProt Q05586+Q12879, C744Y); assay type: cell-based; settings: YFP-hGluN1-1a-C744Y/hGluN2A; −60 mV
YFP-hGluN1-1a-C744Y/hGluN2A, sequence (Q12879 23-1464, other chains not shown): as above

YFP-hGluN1-1a/hGluN2B = YFP-hGluN1-1a/hGluN2B (Homo sapiens, UniProt Q05586+Q13224); assay type: cell-based; settings: YFP-hGluN1-1a/hGluN2B; −60 mV
YFP-hGluN1-1a/hGluN2A = YFP-hGluN1-1a/hGluN2A (Homo sapiens, UniProt Q05586+Q12879); assay type: cell-based; settings: YFP-hGluN1-1a/hGluN2A; −60 mV
YFP-hGluN1-1a/hGluN2A, sequence (Q12879 23-1464, other chains not shown): as above

Q: Which “increase of the EC50 value for NMDA” value [1] does the source give for `CN[C@H](CC(=O)O)C(=O)O` [NMDA] here?
A: The value was ~25%.

Q: Which “effect on peak current amplitudes (redox sensitivity)” value (hGluN1-4a/hGluN2A) does the source give for `O=C(O)c1cc(SSc2ccc([N+](=O)[O-])c(C(=O)O)c2)ccc1[N+](=O)[O-]` [DTNB, 5,5′-dithiobis-(2-nitrobenzoic acid)] here?
A: The value was “neither condition (DTT or DTNB) altered the peak current amplitudes”.

Q: And the “effect on peak current amplitudes (redox sensitivity)” value (hGluN1-4a-C744Y/hGluN2A)?
A: The value was “neither condition (DTT or DTNB) altered the peak current amplitudes”.

Q: With `NC1=N[C@H](O)[C@H]2[C@H]3O[C@]4(O)O[C@@H]([C@@H](O)[C@@]2(N1)[C@@H]4O)[C@]3(O)CO` [TTX, tetrodotoxin] as the compound, how does the relative surface expression [2] read?
A: Its relative surface expression is “no alterations in the relative surface expression levels”.

Q: Which relative surface expression [3] does the source give for `CN1CCc2cc3c(cc2[C@H]1[C@@H]1OC(=O)c2c1ccc1c2OCO1)OCO3` [bicuculline] here?
A: Its relative surface expression is “increased relative surface expression”.

Q: And the relative surface expression [2]?
A: Its relative surface expression is “no alterations in the relative surface expression levels”.

Q: Which EC50 (GluN1-C454S/GluN2B) does the source give for `N[C@@H](CCC(=O)O)C(=O)O` [L-glutamate] here?
A: The EC50 was 1700 nM.

Q: What about the EC50 (GluN1-C455S/GluN2B) of the same compound?
A: The EC50 was 3000 nM.

Q: And the EC50 (GluN1-C436S/GluN2B)?
A: Its EC50 is 3000 nM.

Q: And the “L-glutamate h (Hill coefficient)” value [4]?
A: Its value is 0.89 ± 0.05.

Q: What about the EC50 [5] of the same compound?
A: Its EC50 is 1100 nM.

Q: What about the “L-glutamate h (Hill coefficient)” value [6] of the same compound?
A: The value was 1.33 ± 0.09.

Q: And the “L-glutamate h (Hill coefficient)” value (YFP-hGluN1-1a/hGluN2B)?
A: Its value is 1.06 ± 0.06.

Q: And the “L-glutamate h (Hill coefficient)” value (YFP-hGluN1-1a/hGluN2A)?
A: The value was 1.36 ± 0.10.
